Results reported in patent US8147818B2, “Hepatitis C virus inhibitors” (Bristol-Myers Squibb Company, priority 2008, dated 2012).
pEC50: −log10 of the molar value.

These compounds were tested on HCV 1b-377-neo replicon cells (assay: HCV Replicon assay, HCV 1b-377-neo replicon cells). Settings: Hepatitis C virus, read-out: EC50 against HCV 1b (Activity or Range).
Format: cell-based, HCV 1b genotype
Protocol: An HCV Replicon assay was utilized in the present disclosure, and was prepared, conducted and validated as described in commonly owned PCT/US2006/022197 and in O'Boyle et. al. Antimicrob Agents Chemother. 2005 April; 49(4):1346-53.
HCV 1b-377-neo replicon cells were used to test the currently described compound series as well as cells resistant to compound A containing a Y2065H mutation in NS5A (described in application PCT/US2006/022197). The compounds tested were determined to have more than 10-fold less inhibitory activity on cells containing the mutation than wild-type cells indicating a related mechanism of action between the two compound series. Thus, the compounds of the present disclosure can be effective to inhibit the function of the HCV NS5A protein and are understood to be as effective in combinations as previously described in application PCT/US2006/022197 and commonly owned WO/O4014852. Further, the compounds of the present disclosure can be effective against the HCV 1b genotype. It should also be understood that the compounds of the present disclosure can inhibit multiple genotypes of HCV. […] In one embodiment compounds of the present disclosure are active against the 1a, 1b, 2a, 2b, 3a, 4a, and 5a genotypes.

Compared with `COC(=O)N[C@H](C(=O)N1[C@@H]2C[C@@H]2C[C@H]1c1nc2c([nH]1)CCc1cc(-c3ccc(-c4[nH]c([C@@H]5C[C@H]6C[C@H]6N5C(=O)[C@@H](NC(=O)OC)C(C)C)nc4CC(F)(F)F)cc3)ccc1-2)C(C)C` [Example 22r.3], `COC(=O)N[C@H](C(=O)N1CCC[C@H]1c1ncc(-c2ccc(-c3ccc4c(c3)Cc3nc([C@@H]5CCCN5C(=O)[C@@H](NC(=O)OC)C(C)C)[nH]c3CC4)cc2)[nH]1)C(C)C` [Example 22p] is 1.72 log units lower in pEC50: 11.52 for the first, 9.80 for the second. The first is the more potent here.

Going from `CCN(CC)[C@@H](C(=O)N1CCC[C@H]1c1nc2c([nH]1)CCCc1cc(-c3ccc(-c4[nH]c([C@@H]5CCCN5C(=O)[C@@H](c5ccccc5)N(CC)CC)nc4CC(F)(F)F)cc3)ccc1-2)c1ccccc1` [Example 22a.3] to `COC(=O)N[C@@H](C(=O)N1CCC[C@H]1c1nc2c(ccc3cc(-c4ccc5c(ccc6nc([C@@H]7CCCN7C(=O)[C@H](NC(=O)OC)c7ccccc7)[nH]c65)c4)ccc32)[nH]1)c1ccccc1` [Example 22u.2b], the pEC50 falls from 11.00 to 10.70 (0.30 log units).

Compound `COC(=O)N[C@H](C(=O)N1CCC[C@H]1c1ncc(-c2ccc(-c3ccc4c(c3)CCc3[nH]c([C@@H]5CCCN5C(=O)[C@@H](NC(=O)OC)[C@@H](C)OC)nc3-4)cc2F)[nH]1)[C@H](C)OC` [Example 22s.c] has a pEC50 of 10.70.

Same assay, conditions: Hepatitis C virus, read-out: EC50 against HCV 1b (Activity or Range), range class

First: CCN(CC)[C@@H](C(=O)N1CCC[C@H]1c1ncc(-c2ccc(-c3ccc4c(ccc5[nH]c([C@@H]6CCCN6C(=O)[C@@H](c6ccccc6)N(CC)CC)nc54)c3)cc2F)[nH]1)c1ccccc1 [Example 22v.a]
Second: CCN(CC)[C@@H](C(=O)N1CCC[C@H]1c1ncc(-c2ccc(-c3ccc4c(ccc5[nH]c([C@@H]6CC(F)(F)CN6C(=O)[C@@H](c6ccccc6)N(CC)CC)nc54)c3)cc2)[nH]1)c1ccccc1 [Example 22w.1a]
The pEC50 of the first is lower: 9.00 to 10.00 for the first, 10.00 to 12.00 for the second.

`COC(=O)N[C@H](C(=O)N1[C@@H]2C[C@@H]2C[C@H]1c1ncc(-c2ccc(-c3ccc4c(ccc5[nH]c([C@@H]6C[C@H]7C[C@H]7N6C(=O)[C@@H](NC(=O)OC)C(C)C)nc54)c3)cc2)[nH]1)C(C)C` [Example 22u.1] and `COC(=O)N[C@H](C(=O)N1[C@@H]2C[C@@H]2C[C@H]1c1nc2c(ccc3cc(-c4ccc5c(ccc6nc([C@@H]7C[C@H]8C[C@H]8N7C(=O)[C@@H](NC(=O)OC)C(C)C)[nH]c65)c4)ccc32)[nH]1)C(C)C` [Example 22u.5] fall in the same range of pEC50: 10.00 to 12.00 for the first, 10.00 to 12.00 for the second.

`COC(=O)N[C@H](C(=O)N1CCC[C@H]1c1nc2c([nH]1)CCCc1cc(-c3ccc(-c4[nH]c([C@@H]5CCCN5C(=O)[C@@H](NC(=O)OC)C(C)C)nc4CC(F)(F)F)cc3)ccc1-2)C(C)C` [Example 22a.2] and `COC(=O)N[C@H](C(=O)N1CCC[C@H]1c1nc2c([nH]1)CCc1cc(-c3ccc(-c4[nH]c([C@@H]5CCCN5C(=O)[C@@H](NC(=O)OC)C(C)C)nc4CCC(F)(F)F)cc3)ccc1-2)C(C)C` [Example 22r.1] fall in the same range of pEC50: 10.00 to 12.00 for the first, 10.00 to 12.00 for the second.

`COC(=O)N[C@H](C(=O)N1[C@@H]2C[C@@H]2C[C@H]1c1ncc(-c2ccc(-c3ccc4c(c3)CCc3[nH]c([C@@H]5C[C@H]6C[C@H]6N5C(=O)[C@@H](NC(=O)OC)C(C)C)nc3-4)cc2)[nH]1)C(C)C` [Example 22r.2] and `COC(=O)N[C@H](C(=O)N1[C@@H]2C[C@@H]2C[C@H]1c1nc2c([nH]1)-c1ccc(-c3ccc4c(ccc5[nH]c([C@@H]6C[C@H]7C[C@H]7N6C(=O)[C@@H](NC(=O)OC)C(C)C)nc54)c3)cc1CC2)C(C)C` [Example 22u.4] fall in the same range of pEC50: 10.00 to 12.00 for the first, 10.00 to 12.00 for the second.

`COC(=O)N[C@H](C(=O)N1[C@@H]2C[C@@H]2C[C@H]1c1nc2ccc3cc(-c4ccc5c(ccc6[nH]c([C@@H]7C[C@H]8C[C@H]8N7C(=O)C(c7ccccc7)N7C8CCC7CC8)nc65)c4)ccc3c2[nH]1)C(C)C` (some centres unmarked) [Example 24.2d] and `COC(=O)N[C@H](C(=O)N1[C@@H]2C[C@@H]2C[C@H]1c1nc2ccc3cc(-c4ccc5c(ccc6[nH]c([C@@H]7C[C@H]8C[C@H]8N7C(=O)[C@H](NC(=O)OC)c7ccccc7)nc65)c4)ccc3c2[nH]1)C(C)C` [Example 24.2a] fall in the same range of pEC50: 10.00 to 12.00 for the first, 10.00 to 12.00 for the second.

`COC(=O)N[C@H](C(=O)N1CC(F)(F)C[C@H]1c1ncc(-c2ccc(-c3ccc4c(c3)CCCc3[nH]c([C@@H]5CCCN5C(=O)[C@@H](NC(=O)OC)C(C)C)nc3-4)cc2)[nH]1)C(C)C` [Example 22h] and `COC(=O)N[C@H](C(=O)N1CCC[C@H]1c1ncc(-c2ccc(-c3ccc4c(c3)CCc3[nH]c([C@@H]5CC(F)(F)CN5C(=O)[C@@H](NC(=O)OC)C(C)C)nc3-4)cc2)[nH]1)C(C)C` [Example 22t.1] fall in the same range of pEC50: 10.00 to 12.00 for the first, 10.00 to 12.00 for the second.

First: COC(=O)N[C@H](C(=O)N1CCC[C@H]1c1ncc(-c2ccc(-c3ccc4c(c3)OCc3[nH]c([C@@H]5CCCN5C(=O)[C@@H](NC(=O)OC)C(C)C)nc3-4)cc2)[nH]1)C(C)C [Example 22r.b]
Second: COC(=O)N[C@H](C(=O)N1CCC[C@H]1c1ncc(-c2ccc(-c3ccc4c(c3)CCc3[nH]c([C@@H]5CCCN5C(=O)[C@@H](NC(=O)OC)C(C)C)nc3C4)cc2)[nH]1)C(C)C [Example 22o]
The pEC50 of the first is higher: 10.00 to 12.00 for the first, 9.00 to 10.00 for the second. The first is the more potent here.

`CCN(CC)[C@@H](C(=O)N1CCC[C@H]1c1ncc(-c2ccc(-c3ccc4c(c3)CCCc3[nH]c([C@@H]5CCCN5C(=O)[C@@H](c5ccccc5)N(CC)CC)nc3-4)cc2)[nH]1)c1ccccc1` [Example 22.1] and `CCN(CC)[C@@H](C(=O)N1CC(F)(F)C[C@H]1c1ncc(-c2ccc(-c3ccc4c(c3)CCCc3[nH]c([C@@H]5CCCN5C(=O)[C@@H](c5ccccc5)N(CC)CC)nc3-4)cc2)[nH]1)c1ccccc1` [Example 22h.1] fall in the same range of pEC50: 10.00 to 12.00 for the first, 10.00 to 12.00 for the second.

`COC(=O)N[C@H](C(=O)N1CCC[C@H]1c1nc2c(ccc3cc(-c4ccc5c(ccc6nc([C@@H]7CCCN7C(=O)[C@@H](NC(=O)OC)C(C)C)[nH]c65)c4)ccc32)[nH]1)C(C)C` [Example 22u.2] and `COC(=O)N[C@H](C(=O)N1CCC[C@H]1c1nc2ccc3cc(-c4ccc5c(ccc6[nH]c([C@@H]7CCCN7C(=O)[C@@H](NC(=O)OC)C7CCOCC7)nc65)c4)ccc3c2[nH]1)C(C)C` [Example 24.1b] fall in the same range of pEC50: 10.00 to 12.00 for the first, 10.00 to 12.00 for the second.

`CCN(CC)[C@@H](C(=O)N(C)[C@@H](C)c1nc2c([nH]1)CCCc1cc(-c3ccc(-c4cnc([C@@H]5CCCN5C(=O)[C@@H](c5ccccc5)N(CC)CC)[nH]4)cc3)ccc1-2)c1ccccc1` [Example 22b.1] and `CCN(CC)[C@@H](C(=O)N1CCC[C@H]1c1ncc(-c2ccc(-c3ccc4c(c3)CCc3[nH]c([C@@H]5CC(F)(F)CN5C(=O)[C@@H](c5ccccc5)N(CC)CC)nc3-4)cc2)[nH]1)c1ccccc1` [Example 22t.1a] fall in the same range of pEC50: 10.00 to 12.00 for the first, 10.00 to 12.00 for the second.

`COC(=O)N[C@H](C(=O)N1CCC[C@H]1c1nc2c([nH]1)CCc1cc(-c3ccc4c(c3)CCc3[nH]c([C@@H]5CCCN5C(=O)[C@@H](NC(=O)OC)C(C)C)nc3-4)ccc1-2)C(C)C` [Example 22r.4] and `COC(=O)N[C@H](C(=O)N1CCC[C@H]1c1ncc(-c2ccc(-c3ccc4c(c3)CCc3[nH]c([C@@H]5CCCN5C(=O)[C@@H](NC(=O)OC)C(C)C)nc3-4)cc2F)[nH]1)C(C)C` [Example 22s] fall in the same range of pEC50: 10.00 to 12.00 for the first, 10.00 to 12.00 for the second.

`CCN(CC)[C@@H](C(=O)N1CC(F)(F)C[C@H]1c1ncc(-c2ccc(-c3ccc4c(ccc5[nH]c([C@@H]6CC(F)(F)CN6C(=O)[C@@H](c6ccccc6)N(CC)CC)nc54)c3)cc2)[nH]1)c1ccccc1` [Example 22w.2a] and `CCN(CC)[C@@H](C(=O)N1[C@@H]2C[C@@H]2C[C@H]1c1ncc(-c2ccc(-c3ccc4c(ccc5[nH]c([C@@H]6C[C@H]7C[C@H]7N6C(=O)[C@@H](c6ccccc6)N(CC)CC)nc54)c3)cc2F)[nH]1)c1ccccc1` [Example 22v.1a] fall in the same range of pEC50: 10.00 to 12.00 for the first, 10.00 to 12.00 for the second.

`COC(=O)N[C@@H](C(=O)N(C)[C@@H](C)c1nc2c([nH]1)CCOc1cc(-c3ccc(-c4cnc([C@@H]5CCCN5C(=O)[C@H](NC(=O)OC)c5ccccc5)[nH]4)cc3)ccc1-2)c1ccccc1` [Example 22b.3] and `COC(=O)N[C@@H](C(=O)N1CCC[C@H]1c1ncc(-c2ccc(-c3ccc4c(c3)OCCc3[nH]c([C@@H]5CCCN5C(=O)[C@H](NC(=O)OC)c5ccccc5)nc3-4)cc2)[nH]1)c1ccccc1` [Example 22a.1] fall in the same range of pEC50: 10.00 to 12.00 for the first, 10.00 to 12.00 for the second.

`COC(=O)N[C@@H](C(=O)N1[C@@H]2C[C@@H]2C[C@H]1c1ncc(-c2ccc(-c3ccc4c(c3)CCc3[nH]c([C@@H]5C[C@H]6C[C@H]6N5C(=O)[C@H](NC(=O)OC)c5ccccc5)nc3-4)cc2)[nH]1)c1ccccc1` [Example 22r.2b] and `COC(=O)N[C@@H](C(=O)N1[C@@H]2C[C@@H]2C[C@H]1c1ncc(-c2ccc(-c3ccc4c(c3)CCc3[nH]c([C@@H]5C[C@H]6C[C@H]6N5C(=O)[C@H](NC(=O)OC)c5ccccc5)nc3-4)cc2F)[nH]1)c1ccccc1` [Example 22s.1b] fall in the same range of pEC50: 10.00 to 12.00 for the first, 10.00 to 12.00 for the second.

`CCN(CC)[C@@H](C(=O)N1[C@@H]2C[C@@H]2C[C@H]1c1ncc(-c2ccc(-c3ccc4c(c3)CCc3[nH]c([C@@H]5C[C@H]6C[C@H]6N5C(=O)[C@@H](c5ccccc5)N(CC)CC)nc3-4)cc2)[nH]1)c1ccccc1` [Example 22r.2a] and `COC(=O)N[C@H](C(=O)N1CCC[C@H]1c1ncc(-c2ccc(-c3ccc4c(c3)CCCc3[nH]c([C@@H]5CCCN5C(=O)[C@@H](NC(=O)OC)[C@@H](C)OC)nc3-4)cc2F)[nH]1)[C@H](C)OC` [Example 22g.3] fall in the same range of pEC50: 10.00 to 12.00 for the first, 10.00 to 12.00 for the second.
